Results as given in ChEMBL document CHEMBL3046227, “Synthesis and evaluation in vitro of 1-[2-(10-dihydroartemisininoxy) ethyl]-3-phenylurea derivatives as potential agents against cancer” (Med Chem Res, 2013).

How the values were obtained:
K562 = assay: Cytotoxicity against Homo sapiens (human) K562 cells after 48 hr by MTT assay; format: functional, cell-based; details: K562, 48 h
U-937 = assay: Cytotoxicity against Homo sapiens (human) U937 cells after 48 hr by MTT assay; format: functional, cell-based; details: U-937, 48 h
HCT-116 [1] = assay: Ratio of dihydroartemisinin IC50 to compound IC50 for Homo sapiens (human) HCT116 cells; format: functional
MCF7 [2] = assay: Cytotoxicity against Homo sapiens (human) MCF7 cells after 48 hr by MTT assay; format: functional, cell-based; details: MCF7, 48 h
HepG2 = assay: Cytotoxicity against Homo sapiens (human) HepG2 cells after 48 hr by MTT assay; format: functional, cell-based; details: HepG2, 48 h
HeLa = assay: Cytotoxicity against Homo sapiens (human) HeLa cells after 48 hr by MTT assay; format: functional, cell-based
A549 [3] = assay: Ratio of dihydroartemisinin IC50 to compound IC50 for Homo sapiens (human) A549 cells; format: functional
HL-60 = assay: Cytotoxicity against Homo sapiens (human) HL60 cells after 48 hr by MTT assay; format: functional, cell-based; details: HL-60, 48 h
HT-1080 = assay: Cytotoxicity against Homo sapiens (human) HT1080 cells after 48 hr by MTT assay; format: functional, cell-based; details: HT-1080, 48 h
HCT-116 [4] = assay: Cytotoxicity against Homo sapiens (human) HCT116 cells after 48 hr by MTT assay; format: functional, cell-based; details: HCT-116, 48 h
[5] = Cytotoxicity against Homo sapiens (human) A375-S2 cells after 48 hr by MTT assay; format: functional, cell-based; details: A375-S2, 48 h
A549 [6] = assay: Cytotoxicity against Homo sapiens (human) A549 cells after 48 hr by MTT assay; format: functional, cell-based; details: A549, 48 h
MCF7 [7] = assay: Ratio of dihydroartemisinin IC50 to compound IC50 for Homo sapiens (human) MCF7 cells; format: functional

Row | Compound | IC50 (K562) | IC50 (U-937) | Ratio IC50 (HCT-116 [1]) | IC50 (MCF7 [2]) | IC50 (HepG2) | IC50 (HeLa) | Ratio IC50 (A549 [3]) | IC50 (HL-60) | IC50 (HT-1080) | IC50 (HCT-116 [4]) | IC50 [5] | IC50 (A549 [6]) | Ratio IC50 (MCF7 [7])
1 | C[C@H]1[C@@H](OCCNC(=O)Nc2ccccc2)O[C@@H]2O[C@@]3(C)CC[C@H]4[C@H](C)CC[C@@H]1[C@@]24OO3 | 25 µM | 6.06 µM | 1.7 | 43.7 µM | 34 µM | 25.1 µM | 1.2 | 3 µM | > 100 µM | 53.8 µM | > 100 µM | 63.3 µM | 
2 | C[C@H]1[C@@H](OCCNC(=O)Nc2ccc(C(F)(F)F)cc2)O[C@@H]2O[C@@]3(C)CC[C@H]4[C@H](C)CC[C@@H]1[C@@]24OO3 | 6.97 µM | 1.1 µM | 1.7 | 11.6 µM | 11.2 µM | 16.6 µM | 1.2 | < 1 µM | > 100 µM | 31.3 µM | > 100 µM | 29.5 µM | 4
3 | C[C@H]1[C@H](OCCNC(=O)Nc2ccc([N+](=O)[O-])cc2)O[C@@H]2O[C@@]3(C)CC[C@H]4[C@H](C)CC[C@@H]1[C@@]24OO3 | > 100 µM | 9.26 µM | 1.7 | 94.7 µM | 34.3 µM | 64.2 µM | 1.2 | < 1 µM | > 100 µM | 41 µM | > 100 µM | 49.6 µM | 
4 | Cc1ccc(C)c(NC(=O)NCCO[C@H]2O[C@@H]3O[C@@]4(C)CC[C@H]5[C@H](C)CC[C@@H]([C@H]2C)[C@@]35OO4)c1 | 23 µM | 2.51 µM | 1.7 | 42.2 µM | 23.2 µM | 31 µM | 1.2 | < 1 µM | > 100 µM | 47.5 µM | > 100 µM | 33.7 µM | 
5 | C[C@H]1[C@@H](OCCNC(=O)Nc2ccc(Cl)cc2)O[C@@H]2O[C@@]3(C)CC[C@H]4[C@H](C)CC[C@@H]1[C@@]24OO3 | 32.5 µM | 9.99 µM | 1.7 | 32.8 µM | 36.3 µM | 20.6 µM | 1.2 | < 1 µM | 43.9 µM | 39.5 µM | 41 µM | 42 µM | 
6 | Cc1c(Cl)cccc1NC(=O)NCCO[C@H]1O[C@@H]2O[C@@]3(C)CC[C@H]4[C@H](C)CC[C@@H]([C@H]1C)[C@@]24OO3 | 9.45 µM | 2.59 µM | 1.7 | 36.8 µM | 40.6 µM | 25.7 µM | 1.2 | < 1 µM | > 100 µM | 22.7 µM | > 100 µM | 26.2 µM | 
7 | C[C@H]1[C@H](OCCNC(=O)Nc2ccc(C(F)(F)F)cc2)O[C@@H]2O[C@@]3(C)CC[C@H]4[C@H](C)CC[C@@H]1[C@@]24OO3 | 26.1 µM | < 1 µM | 1.7 | > 100 µM | 11.7 µM | 31.7 µM | 1.2 | < 1 µM | > 100 µM | 46.4 µM | > 100 µM | 37.1 µM | 
8 | C[C@H]1[C@@H](O)O[C@@H]2O[C@@]3(C)CC[C@H]4[C@H](C)CC[C@@H]1[C@@]24OO3 [ARTENIMOL] | 9.81 µM | < 1 µM |  | 50.2 µM | 30.1 µM | 8.85 µM |  | < 1 µM | 49.1 µM | 95.4 µM | 5.48 µM | 76.2 µM | 
9 | C[C@H]1[C@H](OCCNC(=O)Nc2ccc(Cl)cc2)O[C@@H]2O[C@@]3(C)CC[C@H]4[C@H](C)CC[C@@H]1[C@@]24OO3 | 37.9 µM | 2.6 µM | 1.7 | 25.9 µM | 16.6 µM | 19.7 µM | 1.2 | < 1 µM | 40.3 µM | 37.8 µM | 9.25 µM | 35.5 µM | 
10 | COc1ccc(NC(=O)NCCO[C@H]2O[C@@H]3O[C@@]4(C)CC[C@H]5[C@H](C)CC[C@@H]([C@H]2C)[C@@]35OO4)cc1 | 55.8 µM | 23.7 µM | 1.7 | > 100 µM | 46.2 µM | 61.5 µM | 1.2 | 2.53 µM | > 100 µM | 50.7 µM | > 100 µM | 63.2 µM | 
11 | C[C@H]1[C@@H](OCCNC(=O)Nc2ccc(Br)cc2)O[C@@H]2O[C@@]3(C)CC[C@H]4[C@H](C)CC[C@@H]1[C@@]24OO3 | 27.6 µM | 5.2 µM | 1.7 | 25.6 µM | 23.2 µM | 18.2 µM | 1.2 | < 1 µM | > 100 µM | 26.7 µM | > 100 µM | 34.2 µM | 
12 | Cc1ccccc1NC(=O)NCCO[C@H]1O[C@@H]2O[C@@]3(C)CC[C@H]4[C@H](C)CC[C@@H]([C@H]1C)[C@@]24OO3 | 29.4 µM | 16.2 µM | 1.7 | 88.9 µM | 53.2 µM | 64.7 µM | 1.2 | 2.11 µM | > 100 µM | 53.8 µM | > 100 µM | 41.7 µM | 
13 | C[C@H]1[C@H](OCCNC(=O)Nc2ccc(Br)cc2)O[C@@H]2O[C@@]3(C)CC[C@H]4[C@H](C)CC[C@@H]1[C@@]24OO3 | 34.6 µM | < 1 µM | 1.7 | 25.9 µM | 24.3 µM | 23.9 µM | 1.2 | < 1 µM | 35.2 µM | 35 µM | 23.9 µM | 39.4 µM | 
14 | C[C@H]1[C@@H](OCCNC(=O)Nc2ccc([N+](=O)[O-])cc2)O[C@@H]2O[C@@]3(C)CC[C@H]4[C@H](C)CC[C@@H]1[C@@]24OO3 | 32.1 µM | 7.75 µM | 1.7 | 42.2 µM | 39.6 µM | 23 µM | 1.2 | 1.2 µM | 29.8 µM | 44.4 µM | 35.9 µM | 53 µM | 
15 | C[C@H]1[C@@H](OCCNC(=O)Nc2ccc(F)cc2)O[C@@H]2O[C@@]3(C)CC[C@H]4[C@H](C)CC[C@@H]1[C@@]24OO3 | 38.4 µM | 25.2 µM | 1.7 | 46.8 µM | 26.2 µM | 35.2 µM | 1.2 | 3.64 µM | 26.8 µM | 43.7 µM | 33.7 µM | 43.7 µM | 
